These results are taken from patent publication US11401278B2, “Macrocyclic indole derivatives” (The Broad Institute, Inc., priority 2017, dated 2022).

Structures can show the parent of a compound that is named as a salt. Where two headings read alike, the source gives them in different places.

One experiment concerns A2780. Description: Antiproliferation assay (Assay 7), A2780. The format is cell-based. The note with it: CellTiter-Glo, several values per example. The procedure: Assessment of the Anti-Proliferative Effect of Compounds in Different Cell Lines
The impact of compounds on the proliferation of different cell lines was assessed using the CellTiter-Glo® Luminescent Cell Viability reagent from Promega (G7573).
In parallel, cells were plated in a reference (day 0) plate for time zero determination.
Rim wells were excluded. The cells were incubated for 72 hours in a humidified incubator at 37° C. The day 0 plate was measured by adding 30 μL/well of CTG solution (CellTiter-Glo® Luminescent Cell Viability reagent, Promega G7573) to time zero wells in the reference plate followed by a 10 minutes incubation and luminescence reading at 0.1 ms. using the PHERAstar FS microplate reader (BMG Labtech).
After 72 hours incubation, the treated plates were measured in the same way as the day 0 plate mentioned above.

A further experiment concerns the target MCL1 protein (Homo sapiens (Human), UniProt Q07820). Kind of experiment: PIxEL: protein-protein interaction in permeabilized cells by ELISA (Assay 5). The format is cell-based. The following applies: permeabilized RKO cells, Biotin-BIM peptide 0.2 μM, serum free; median. The procedure:
PI×EL: Protein-Protein Interaction in Permeabilized Cells by ELISA
Most MCL1 protein molecules are localized at the mitochondria outer membrane and sequester pro-apoptotic proteins through binding of their BCL2 homology domain 3 (BH3 domain). MEB buffer (150 mM mannitol, 10 mM HEPES pH 7.5, 50 mM KCl, 20 μM EDTA, 20 μM EGTA, 5 mM potassium succinate, 0.1% protease-free BSA (SIGMA) with low dose digitonin (0.002%) permeabilizes plasma membrane while leaves live mitochondria, where MCL1 maintains its native localization and conformation. Unlike biophysical assays (e.g. TR-FRET) that use truncated recombinant MCL1 protein, this assay uses full length endogenous MCL1 protein at mitochondria outer membrane. It measures the interaction between MCL1 protein and biotinylated BIM BH3 peptide. Compounds can compete with BIM BH3 peptide to bind to MCL1 protein. This serum free assay measures the affinity between MCL1 protein and compound in permeabilized cells, therefore it is not affected by serum binding and cell permeability, and can measure the intrinsic compound affinity.
On day 1, RKO colon cancer cell line cells were plated at 0.8 million cells/ml, 100 μl/well in 96-well flat bottom TC plates (Corning). MCL1 antibody (Santa Cruz sc-12756) were diluted at 200 fold (final concentration 1 μg/ml) in carbonate buffer (Thermo Fisher Scientific, pH 9.6), and 50 μl of diluted antibody was added to each well of high bind ELISA plates (SARSTEDT). Each plate was tapped to make sure liquid covering entire bottom of wells and incubate at 37° C. overnight.
On the second day, MCL1 antibody was washed from ELISA plate. 250 μl Odyssey® Blocking Buffer (PBS) (Li-Cor) was added to each well, incubated at room temperature for at least 1 hour, then washed once with 250 μl 1×PBST. Plates with RKO cells were gently washed once with 100 μl/well PBS, once with 100 μl/well MEB buffer without digitonin, then 100 μl of MEB buffer with 0.002% digitonin was gently added to each well. Compounds were added with HP Tecan compound dispenser in 3-fold dilution series, highest dose 30 μM, 10-dose per compound in quadruplicates. Biotin-BIM peptide (synthesized by 21st Century) was added with HP Tecan compound dispenser at 0.2 μM immediately after the addition of compounds. Plates were rocked for 1 hour at room temperature. Then MEB buffer was aspirated and 50 μl of CHAPS buffer (50 mM Tris-Cl, pH 7.4, 150 mM NaCl, 1% CHAPS, 1 mM EDTA, 1 mM EGTA, cOmplete protease inhibitors (Roche), PhosSTOP (Roche)) was added to each well. Plates were rocked for 1 hour at 4° C., then 45 μl cell lysate from each well were transferred to ELISA plates coated with MCL1 antibody. Plates were incubated overnight in the cold room with rocking.
On the third day, ELISA plates were washed once with 250 μl 1×PBST. Streptavidin-poly-HRP (Thermo Fisher Scientific) was diluted to 20 ng/ml in Odyssey blocking buffer plus 0.05% Triton-100, and 100 μl was added to each well of the ELISA plate. Plates were incubated at room temperature for 1 hour with rocking, then washed with 100 μL 1×PBST for 3 times. Each SuperSignal ELISA Femto Maximum Sensitivity substrate was added to a 50-ml tube and mixed, then 100 μl of mixed substrate was added to each well. Plates were shaken for 1 minute then luminescence was measured by Envision plate reader […]. Signal of each well were normalized by no-compound control and no-cell control. IC50 was calculated using Graphic Pad PRISM software.

In a further experiment the target is MCL-1 (Homo sapiens (Human), UniProt Q07820, K194A/K197A/R201A). Description: Protein-compound interaction assay (SPR assay, Assay 8). The following applies: immobilized MBP-MCL-1, 25° C., geometric mean; for koff: read-out: koff; for kon: read-out: kon. The format is binding. The text has this: Assay 8 Protein-Compound Interaction Assay (SPR Assay)
MCL-1, sequence (Q07820 whole entry K194A/K197A/R201A, looked up): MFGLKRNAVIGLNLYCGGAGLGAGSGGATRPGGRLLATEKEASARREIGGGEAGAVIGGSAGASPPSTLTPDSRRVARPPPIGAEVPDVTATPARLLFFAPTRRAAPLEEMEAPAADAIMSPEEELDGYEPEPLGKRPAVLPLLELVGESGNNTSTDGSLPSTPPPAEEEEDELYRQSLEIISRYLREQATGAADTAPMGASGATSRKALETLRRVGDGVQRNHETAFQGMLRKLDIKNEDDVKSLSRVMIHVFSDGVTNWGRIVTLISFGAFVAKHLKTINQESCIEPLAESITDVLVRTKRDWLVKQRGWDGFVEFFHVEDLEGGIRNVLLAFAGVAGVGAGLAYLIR
The ability of the compounds described in this invention to bind to MCL-1 may be determined using surface plasmon resonance (SPR). This allows for the quantification of binding in terms of the equilibrium dissociation constant (KD [M]), as well as association and dissociation rate constants (kon [1/M 1/s] and koff [1/s], respectively). The measurements may be performed using Biacore® T200 or Biacore® S200 instruments (GE Healthcare).
For SPR measurements, recombinant MCL-1 (amino acids 173-321, N-terminal fused to Maltose Binding Protein (MBP) (SEQ ID 1) purchased from Beryllium (Bedford, Mass., USA)) was immobilized using standard amine coupling (Johnsson B et al, Anal Biochem. 1991 Nov. 1; 198(2):268-77). Briefly, carboxymethylated dextran biosensor chips (Series S Sensor Chip CMS, GE Healthcare) were activated with 1-ethyl-3-(3-dimethylaminopropyl)-carbodiimide hydrochloride (EDC) and N-hydroxysuccinimide (NHS) according to the supplier's instructions. MBP-MCL-1 was diluted in 1×PBS-P+ (GE Healthcare) and injected on the activated chip surface. Subsequently, a solution of 1 M ethanolamine-HCl (GE Healthcare) was injected to block unreacted groups, resulting in approximately 400-2500 response units (RU) of immobilized protein. A reference surface was generated by treatment with NHS-EDC and ethanolamine-HCl. Compounds were dissolved in 100% dimethylsulfoxide (DMSO) to a concentration of 10 mM and subsequently diluted in running buffer (1×PBS-P+ (GE Healthcare) [generated from PBS-P+ Buffer 10× (GE Healthcare): 0.2 M phosphate buffer with 27 mM KCl, 1.37 M NaCl and 0.5% Surfactant P20 (Tween 20).], 1% v/v DMSO). For SPR binding-measurements, serial dilutions of compound (eight dilution steps, typically ranging from 0.2 nM up to 1 μM) were injected over immobilized protein. […] Compounds were injected for 60 s followed by a dissociation time of up to 1000 s.
The double-referenced sensorgrams were fit to a simple reversible Langmuir 1:1 reaction mechanism as implemented in the Biacore® T200 and S200 evaluation software (T200 evaluation software version 2.0 and S200 evaluation software version 1.0, GE Healthcare).

MCL1 protein, sequence (Q07820 whole entry): as the sequence (Q07820 whole entry K194A/K197A/R201A, looked up) above, with A194K, A197K, A201R counted along it

As for `Cc1c2c(nn1C)CN(CCN1CCOCC1)S(=O)(=O)CCCn1c(C(=O)O)c(CCCOc3cccc4ccccc34)c3cccc-2c31` (racemic) [Example 1, (rac)-2,3-Dimethyl-14-[2-(morpholin-4-yl)ethyl]-7-{3-[(naphthalen-1-yl)oxy]propyl}-13,13-dioxo-10,11,12,13,14,15-hexahydro-2H-13λ^6-pyrazolo[3′,4′:4,5][1,2,8]thiadiazacycloundecino-[6,7,8-hi]indole-8-carboxylic acid], the IC50 is greater than 3.3e-05 M in the experiment with A2780 (72 hours, listed as 01, read-out: Antiproli A2780 [M] IC50) and 3.21e-05 M in the experiment with A2780 (Homo sapiens, A2780, 72 h, read-out: Antiproli A2780 [M] IC50).

Molecule `CCc1c2c(nn1C)CN(C)S(=O)(=O)CCCn1c(C(=O)O)c(CCCOc3cccc4cc(F)ccc34)c3ccc(F)c-2c31` (single isomer, unassigned; enantiomer 1) [Example 8, (+)-3-Ethyl-4-fluoro-7-{3-[(6-fluoronaphthalen-1-yl)oxy]propyl}-2,14-dimethyl-13,13-dioxo-10,11,12,13,14,15-hexahydro-2H-13λ^6-pyrazolo[3′,4′:4,5][1,2,8]thiadiazacycloundecino-[6,7,8-hi]indole-8-carboxylic acid (Enantiomer 1)] displayed a half-inhibitory concentration (IC50) on MCL1 protein of 552 nM. Also, at MCL-1, binding was characterised by a dissociation constant (Kd) of 3.6 nM, the koff is 0.008 s⁻¹ and the kon is 2.2e+06 M⁻¹ s⁻¹.

On MCL1 protein, `CCc1c2c(nn1C)CN(C)S(=O)(=O)CCCn1c(C(=O)O)c(CCCOc3cccc4cc(F)ccc34)c3ccc(Cl)c-2c31` (single isomer, unassigned; enantiomer 1) [Example 36, (+)-4-chloro-3-ethyl-7-{3-[(6-fluoronaphthalen-1-yl)oxy]propyl}-2,14-dimethyl-13,13-dioxo-10,11,12,13,14,15-hexahydro-2H-13lambda^6-pyrazolo[3′,4′:4,5][1,2,8]thiadiazacycloundecino-[6,7,8-hi]indole-8-carboxylic acid (Enantiomer 1)] returned an IC50 of 86.6 nM. Besides, at MCL-1, the affinity, expressed as Kd, was 4 nM; the dissociation rate constant (koff) was 0.004 s⁻¹; the on-rate constant (kon) was determined as 1e+06 M⁻¹ s⁻¹.

Regarding `Cc1c2c(nn1C)CN(C1CC1)S(=O)(=O)CCCn1c(C(=O)O)c(CCCOc3cccc4cc(F)ccc34)c3ccc(Cl)c-2c31` (single isomer, unassigned; enantiomer 1) [Example 42, (−)-4-chloro-14-cyclopropyl-7-{3-[(6-fluoro-1-naphthyl)oxy]propyl}-2,3-dimethyl-11,12,14,15-tetrahydro-2H,10H-pyrazolo[3′,4′:4,5][1,2,8]thiadiazacycloundecino[6,7,8-hi]indole-8-carboxylic acid 13,13-dioxide N-diethylamine salt (Enantiomer 1)], the half-inhibitory concentration (IC50) against MCL1 protein was determined as 157 nM. Moreover, at MCL-1, the Kd worked out at 7.6 nM, the off-rate (koff) came out at 0.016 s⁻¹ and the association rate constant (kon) is 2.1e+06 M⁻¹ s⁻¹.

Consider `CCc1c2c(nn1C)C(CCC1CCOCC1)N(C)S(=O)(=O)CCCn1c(C(=O)O)c(CCCOc3cccc4cc(F)ccc34)c3ccc(Cl)c-2c31` (single isomer, unassigned; enantiomer 1) [Example 61, (+)-4-chloro-3-ethyl-7-{3-[(6-fluoronaphthalen-1-yl)oxy]propyl}-2,14-dimethyl-15-[2-(oxan-4-yl)ethyl]-13,13-dioxo-10,11,12,13,14,15-hexahydro-2H-13lambda^6-pyrazolo[3′,4′:4,5][1,2,8]thiadiazacycloundecino[6,7,8-hi]indole-8-carboxylic acid (Enantiomer 1)], for which, at MCL1 protein, the half-inhibitory concentration (IC50) came to 14.2 nM. For the same molecule, at MCL-1, the Kd was 1.9 nM, the dissociation rate constant (koff) is 0.0012 s⁻¹ and the kon came out at 590000 M⁻¹ s⁻¹.

For the molecule `Cc1c2c(nn1C)CN(C)S(=O)(=O)CCCn1c(C(=O)O)c(CCCOc3cccc4cc(F)ccc34)c3ccc(F)c-2c31` (single isomer, unassigned; enantiomer 2) [Example 39, (+)-4-fluoro-7-{3-[(6-fluoronaphthalen-1-yl)oxy]propyl}-2,3,14-trimethyl-13,13-dioxo-10,11,12,13,14,15-hexahydro-2H-13lambda^6-pyrazolo[3′,4′:4,5][1,2,8]thiadiazacycloundecino-[6,7,8-hi]indole-8-carboxylic acid (Enantiomer 2)], the IC50 against MCL1 protein was 506 nM. Moreover, on MCL-1, the Kd was determined as 5.3 nM, the off-rate constant (koff) was 0.018 s⁻¹ and the kon worked out at 3.4e+06 M⁻¹ s⁻¹.

The molecule `Cc1c2c(nn1C)C(CCN1CCOCC1)N(C)S(=O)(=O)CCCn1c(C(=O)O)c(CCCOc3cccc4ccccc34)c3cccc-2c31` (single isomer, unassigned; enantiomer 2) [Example 46, 2,3,14-trimethyl-15-[2-(morpholin-4-yl)ethyl]-7-{3-[(naphthalen-1-yl)oxy]propyl}-13,13-dioxo-10,11,12,13,14,15-hexahydro-2H-13lambda^6-pyrazolo[3′,4′:4,5][1,2,8]thiadiazacycloundecino[6,7,8-hi]indole-8-carboxylic acid N-ethylethanamine Salt (Enantiomer 2)] had a 50% inhibitory concentration (IC50) at MCL1 protein of 201 nM. Moreover, on MCL-1, binding was characterised by a dissociation constant (Kd) of 2.8 nM, the off-rate (koff) is 0.016 s⁻¹ and the kon turned out to be 5.6e+06 M⁻¹ s⁻¹.

Molecule `Cc1c2c(nn1C)CN(C1CC1)S(=O)(=O)CCCn1c(C(=O)O)c(CCCOc3cccc4ccccc34)c3ccc(Cl)c-2c31` [Example 40, (rac)-4-chloro-14-cyclopropyl-2,3-dimethyl-7-[3-(1-naphthyloxy)propyl]-11,12,14,15-tetrahydro-2H,10H-pyrazolo[3′,4′:4,5][1,2,8]thiadiazacycloundecino[6,7,8-hi]indole-8-carboxylic acid 13,13-dioxide] showed an IC50 against MCL1 protein of 29400 nM.
